Experimental data published in patent US9382228B2 (priority 2013, dated 2016).

Tests used:
osteoclast precursors = test: cells; type: cell-based; settings: read-out: Osteoclast assay
M-NFS-60 cells = test: cells; settings: 67 h, read-out: M-NFS-60 cell proliferation
Protocol: M-NFS-6 Cell Proliferation Assay
A serial dilution of test compound was dispensed into a 384-well black clear bottom plate (Corning, Corning, N.Y.). Two thousand five hundred cells were added per well in 50 μL complete growth medium. […] IC50 values were calculated from a series of percent inhibition values determined at a range of inhibitor concentrations using software routines as implemented in the GraphPad Prism software package.

[1] = target: T1, unphosphorylated c-FMS kinase (uFMS, Seq. ID no. 1) (Homo sapiens, UniProt P07333); test: biochemical; settings: uFMS, enzymatic assay, ATP 500 μM
T1 sequence (P07333 538-972): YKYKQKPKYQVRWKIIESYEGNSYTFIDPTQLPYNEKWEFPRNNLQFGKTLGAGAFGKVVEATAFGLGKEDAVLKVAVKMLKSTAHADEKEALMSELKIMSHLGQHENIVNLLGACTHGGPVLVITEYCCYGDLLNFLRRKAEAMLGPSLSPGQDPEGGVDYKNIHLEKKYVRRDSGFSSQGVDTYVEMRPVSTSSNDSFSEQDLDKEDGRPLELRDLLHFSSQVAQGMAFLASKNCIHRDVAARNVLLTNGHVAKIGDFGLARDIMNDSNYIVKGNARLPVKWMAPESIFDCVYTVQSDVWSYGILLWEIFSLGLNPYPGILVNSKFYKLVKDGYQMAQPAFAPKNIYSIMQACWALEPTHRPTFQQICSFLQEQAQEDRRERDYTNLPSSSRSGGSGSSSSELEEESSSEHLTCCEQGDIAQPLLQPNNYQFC
Protocol: In this assay, the oxidation of NADH (thus the decrease at A340 nm) was continuously monitored spectrophometrically. The reaction mixture (100 μL) contained FMS (purchased from Millipore) (10 nM), polyE4Y (1 mg/mL), MgCl2 (10 mM), pyruvate kinase (4 units), lactate dehydrogenase (0.7 units), phosphoenol pyruvate (1 mM), NADH (0.28 mM) and ATP (500 μM) in 90 mM Tris buffer containing 0.2% octyl-glucoside and 1% DMSO, pH 7.5. The inhibition reaction was started by mixing serial diluted test compound with the above reaction mixture. The absorption at 340 nm was monitored continuously for 4 hours at 30° C. on Synergy 2 plate reader. The reaction rate was calculated using the 3 to 4 h time frame. Percent inhibition was obtained by comparison of reaction rate with that of a control (i.e. in the absence of test compound). IC50 values were calculated from a series of percent inhibition values determined at a range of inhibitor concentrations using software routines as implemented in the GraphPad Prism software package.

[2] = target: unphosphorylated c-KIT kinase (uKIT, Seq. ID no. 2) (Homo sapiens, UniProt P10721); test: biochemical; settings: uKIT, enzymatic assay, ATP 2000 μM
Protocol: uKit kinase (Seq. ID No. 2) Assay
In this assay, the oxidation of NADH (thus the decrease at A340 nm) was continuously monitored spectrophometrically. […] The inhibition reaction was started by mixing serial diluted test compound with the above reaction mixture. The absorption at 340 nm was monitored continuously for 4 hours at 30° C. on Synergy 2 plate reader (BioTech).

[3] = test system: phospho-FMS in THP-1 cells; test: cells; settings: Homo sapiens, THP-1, read-out: pFMS inhibition in THP-1 cells
Protocol: In a separate 96 well black clear bottom plate, one hundred and fifty thousand THP-1 cells were added per well in 100 μL in assay medium. Fifty microliters of diluted compound was then added to the cells. […] Lysates were prepared and used to perform the phospho-FMS ELISA as described by the manufacturer (catalog #DYC3268, R & D Systems, Minneapolis, Minn.). GraphPad Prism was used to calculate IC50 values obtained from data generated from the ELISA assay.

[4] = target: unphosphorylated PDGFRβ kinase (uPDGFRβ, Seq. ID No. 3) (Homo sapiens, UniProt P09619); test: biochemical; settings: uPDGFRb, enzymatic assay, ATP 500 μM
Chain of unphosphorylated PDGFRβ kinase (uPDGFRβ, Seq. ID No. 3) (P09619 557-1106): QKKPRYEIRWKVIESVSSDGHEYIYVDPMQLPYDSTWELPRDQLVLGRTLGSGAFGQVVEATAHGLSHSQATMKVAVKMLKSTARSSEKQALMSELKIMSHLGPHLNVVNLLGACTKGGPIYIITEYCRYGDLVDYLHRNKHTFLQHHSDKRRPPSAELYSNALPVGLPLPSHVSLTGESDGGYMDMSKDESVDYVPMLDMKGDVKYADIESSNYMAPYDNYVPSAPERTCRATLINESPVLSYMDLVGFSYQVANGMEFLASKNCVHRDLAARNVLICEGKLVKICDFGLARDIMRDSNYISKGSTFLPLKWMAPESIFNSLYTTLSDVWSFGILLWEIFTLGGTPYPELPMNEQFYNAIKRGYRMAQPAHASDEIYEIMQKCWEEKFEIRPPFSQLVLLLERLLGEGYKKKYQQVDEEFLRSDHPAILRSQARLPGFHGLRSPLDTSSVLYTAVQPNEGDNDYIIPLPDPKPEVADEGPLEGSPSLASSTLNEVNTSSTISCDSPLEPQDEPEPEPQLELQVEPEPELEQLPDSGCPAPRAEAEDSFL
Protocol: Unphosphorylated PDGFRβ (uPDGFRβ) Kinase (Seq. ID No. 3) Assay
In this assay, the oxidation of NADH (thus the decrease at A340 nm) was continuously monitored spectrophometrically. […] The inhibition reaction was started by mixing serial diluted test compound with the above reaction mixture. The absorption at 340 nm was monitored continuously for 4 h at 30° C. on a Polarstar Optima or Synergy 2 plate reader. The reaction rate was calculated using the 1.5 to 2.5 h time frame. Percent inhibition was obtained by comparison of reaction rate with that of a control (i.e. with no test compound). IC50 values were calculated from a series of percent inhibition values determined at a range of inhibitor concentrations using software routines as implemented in the GraphPad Prism software package.

Chain of unphosphorylated c-KIT kinase (uKIT, Seq. ID no. 2) (P10721 with tags, fused parts or gaps): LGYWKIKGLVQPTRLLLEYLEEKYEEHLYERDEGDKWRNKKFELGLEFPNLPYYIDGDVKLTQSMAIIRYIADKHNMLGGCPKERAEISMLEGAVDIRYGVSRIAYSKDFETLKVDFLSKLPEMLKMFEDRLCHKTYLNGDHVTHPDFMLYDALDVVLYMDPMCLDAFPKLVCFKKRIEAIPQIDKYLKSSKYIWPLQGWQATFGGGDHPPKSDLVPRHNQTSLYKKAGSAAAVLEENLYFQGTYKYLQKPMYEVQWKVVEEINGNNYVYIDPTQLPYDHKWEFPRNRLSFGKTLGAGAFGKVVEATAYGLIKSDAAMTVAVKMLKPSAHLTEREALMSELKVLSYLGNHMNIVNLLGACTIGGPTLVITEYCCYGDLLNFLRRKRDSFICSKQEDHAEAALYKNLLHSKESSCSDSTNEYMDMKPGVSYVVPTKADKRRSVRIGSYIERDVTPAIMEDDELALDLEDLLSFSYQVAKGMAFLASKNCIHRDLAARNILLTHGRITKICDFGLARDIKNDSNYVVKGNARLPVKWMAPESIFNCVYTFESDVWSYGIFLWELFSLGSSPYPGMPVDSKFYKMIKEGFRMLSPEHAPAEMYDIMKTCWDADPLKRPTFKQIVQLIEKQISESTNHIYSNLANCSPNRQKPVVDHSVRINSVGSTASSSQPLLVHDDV

SMILES | IC50 (osteoclast precursors) [nM] | IC50 [1] [nM] | IC50 [2] [nM] | IC50 [3] [nM] | IC50 [4] [nM] | IC50 (M-NFS-60 cells) [nM]
COC(C)(C)C(=O)NC(=O)Nc1cc(C)c(Oc2ccnc(-c3cnn(C)c3)c2)c(C)n1 [Example 140, N-((4,6-dimethyl-5-((2-(1-methyl-1H-pyrazol-4-yl)pyridin-4-yl)oxy)pyridin-2-yl)carbamoyl)-2-methoxy-2-methylpropanamide] | 10 to 100 | < 10 | 10 to 100 | < 10 | 100 to 1000 | < 10
COC1(C(=O)NC(=O)Nc2ccc(Oc3ccnc(-n4cnc(C)c4)c3)cn2)CCCC1 [Example 154, 1-methoxy-N-((5-((2-(4-methyl-1H-imidazol-1-yl)pyridin-4-yl)oxy)pyridin-2-yl)carbamoyl)cyclopentanecarboxamide] | 10 to 100 | < 10 | > 1000 | 10 to 100 | 100 to 1000 | 10 to 100
Cc1ncc(-c2cc(Oc3ccc(NC(=O)NC(=O)C4(C)CCOCC4)nc3)ccn2)s1 [Example 158, 4-methyl-N-((5-((2-(2-methylthiazol-5-yl)pyridin-4-yl)oxy)pyridin-2-yl)carbamoyl)tetrahydro-2H-pyran-4-carboxamide] | 10 to 100 | 10 to 100 | > 1000 | 10 to 100 | 100 to 1000 | 10 to 100
COC(C)(C)C(=O)NC(=O)Nc1ccc(Oc2ccnc(-c3cnc(C)o3)c2)cn1 [Example 159, 2-methoxy-2-methyl-N-((5-((2-(2-methyloxazol-5-yl)pyridin-4-yl)oxy)pyridin-2-yl)carbamoyl)propanamide] | 10 to 100 | 10 to 100 | > 1000 | < 10 | > 1000 | 10 to 100
COC(C)(C)C(=O)NC(=O)Nc1ccc(Oc2ccnc(-c3ccnc(C)c3)c2)cn1 [Example 160, 2-methoxy-2-methyl-N-((5-((2′-methyl-[2,4′-bipyridin]-4-yl)oxy)pyridin-2-yl)carbamoyl)propanamide] | 10 to 100 | < 10 | > 1000 | < 10 | > 1000 | < 10
CCOC(C)(C)C(=O)NC(=O)Nc1ccc(Oc2ccnc(-c3ccnc(C)c3)c2)cn1 [Example 161, 2-ethoxy-2-methyl-N-((5-((2′-methyl-[2,4′-bipyridin]-4-yl)oxy)pyridin-2-yl)carbamoyl)propanamide] | 10 to 100 | < 10 | > 1000 | 10 to 100 | > 1000 | 10 to 100
COC(C)(C)C(=O)NC(=O)Nc1cc(C)c(Oc2ccnc(-n3cnc(C)c3)c2)cn1 [Example 164, 2-methoxy-2-methyl-N-((4-methyl-5-((2-(4-methyl-1H-imidazol-1-yl)pyridin-4-yl)oxy)pyridin-2-yl)carbamoyl)propanamide] | 10 to 100 | < 10 | > 1000 | < 10 | > 1000 | < 10
Cc1cc(NC(=O)NC(=O)C2(C)CCOCC2)nc(C)c1Oc1ccnc(-c2cnn(C)c2)c1 [Example 165, N-((4,6-dimethyl-5-((2-(1-methyl-1H-pyrazol-4-yl)pyridin-4-yl)oxy)pyridin-2-yl)carbamoyl)-4-methyltetrahydro-2H-pyran-4-carboxamide] | 10 to 100 | < 10 | 100 to 1000 | 10 to 100 | 10 to 100 | 10 to 100
CCc1nc(NC(=O)NC(=O)C2(C)CCOCC2)ccc1Oc1ccnc(-c2cnn(C)c2)c1 [Example 167, N-((6-ethyl-5-((2-(1-methyl-1H-pyrazol-4-yl)pyridin-4-yl)oxy)pyridin-2-yl)carbamoyl)-4-methyltetrahydro-2H-pyran-4-carboxamide] | 100 to 1000 | 10 to 100 | > 1000 | 10 to 100 | > 1000 | 100 to 1000
CC(C)c1nc(-c2cc(Oc3ccc(NC(=O)NC(=O)C(C)(C)C)nc3)ccn2)c[nH]1 [Example 169, N-((5-((2-(2-isopropyl-1H-imidazol-4-yl)pyridin-4-yl)oxy)pyridin-2-yl)carbamoyl)pivalamide] | 10 to 100 | < 10 | > 1000 | < 10 | > 1000 | 10 to 100
CCn1cc(-c2cc(Oc3ccc(NC(=O)NC(=O)C(C)(C)OC)nc3)ccn2)cn1 [Example 170, N-((5-((2-(1-ethyl-1H-pyrazol-4-yl)pyridin-4-yl)oxy)pyridin-2-yl)carbamoyl)-2-methoxy-2-methylpropanamide] | < 10 | < 10 | 100 to 1000 | 10 to 100 | > 1000 | < 10
Cc1nc(NC(=O)NC(=O)C(C)(C)C)ccc1Oc1ccnc(-c2c[nH]nn2)c1 [Example 171, N-((5-((2-(1H-1,2,3-triazol-4-yl)pyridin-4-yl)oxy)-6-methylpyridin-2-yl)carbamoyl)pivalamide] | 10 to 100 | < 10 | > 1000 | 10 to 100 | > 1000 | 10 to 100

Second part, led by results:

IC50 (osteoclast precursors) [nM] | IC50 [1] [nM] | IC50 [2] [nM] | IC50 [3] [nM] | IC50 [4] [nM] | SMILES | IC50 (M-NFS-60 cells) [nM]
< 10 | < 10 | 100 to 1000 | < 10 | > 1000 | C=CCn1cc(-c2cc(Oc3ccc(NC(=O)NC(=O)C(C)(C)OC)nc3)ccn2)cn1 [Example 172, N-((5-((2-(1-allyl-1H-pyrazol-4-yl)pyridin-4-yl)oxy)pyridin-2-yl)carbamoyl)-2-methoxy-2-methylpropanamide] | 10 to 100
10 to 100 | 10 to 100 | > 1000 | < 10 | > 1000 | COC(C)(C)C(=O)NC(=O)Nc1ccc(Oc2ccnc(-c3cnc(C(C)C)[nH]3)c2)cn1 [Example 173, N-((5-((2-(2-isopropyl-1H-imidazol-5-yl)pyridin-4-yl)oxy)pyridin-2-yl)carbamoyl)-2-methoxy-2-methylpropanamide] | 10 to 100
10 to 100 | 10 to 100 | 100 to 1000 | 10 to 100 | > 1000 | Cn1cc(-c2cc(Oc3cnc(NC(=O)NC(=O)C(C)(C)C)nc3)ccn2)cn1 [Example 174, N-((5-((2-(1-methyl-1H-pyrazol-4-yl)pyridin-4-yl)oxy)pyrimidin-2-yl)carbamoyl)pivalamide] | 10 to 100
10 to 100 | < 10 | 100 to 1000 | 10 to 100 | 100 to 1000 | Cn1cc(-c2cc(Oc3ccc(NC(=O)NC(=O)C4(C)CCOCC4)nc3)ccn2)cn1 [Example 175, 4-methyl-N-((5-((2-(1-methyl-1H-pyrazol-4-yl)pyridin-4-yl)oxy)pyridin-2-yl)carbamoyl)tetrahydro-2H-pyran-4-carboxamide] | 10 to 100
10 to 100 | 10 to 100 | > 1000 | 10 to 100 | > 1000 | Cn1cc(-c2cc(Oc3cnc(NC(=O)NC(=O)C(C)(C)C)cn3)ccn2)cn1 [Example 176, N-((5-((2-(1-methyl-1H-pyrazol-4-yl)pyridin-4-yl)oxy)pyrazin-2-yl)carbamoyl)pivalamide] | > 1000
